Patent publication US20170037425A1, “METHOD FOR IMPROVING PLANT TRAIT” (SHANGHAI INSTITUTES FOR BIOLOGICAL SCIENCES, CHINESE …, priority 2012, published 2017)

Tests used:
wheat = assay: Phenotype of transgenic wheat; type: in vivo
Method: Wheat transformation was performed with method described in Supartana P, Shimizu T, Nogawa M, Shioiri H, Nakajima T, Haramoto N, Nozue M, and Kojima M. Development of simple and efficient in Planta transformation method for wheat (Triticum aestivum L.) Using Agrobacterium tumefaciens, Journal of Bioscience and Bioengineering 102, 162-170.

[1] = test system: etiolated Brassica hypocotyls; assay: Respiration rate and oxygen evolution in etiolated hypocotyls of transgenic Brassica; type: in vivo, Brassica napus L.; conditions: etiolated hypocotyl
Method: 5-6 individual hypocotyls (5-6 cm in length) were collected from 1-week-old etiolated Brassica. The roots and cotyledons were detached and the hypocotyls were cut into 1 mm in length after weighing. The hypocotyls were put into the reaction vessel of the Clack-type oxygen electrode. The changes of dissolved oxygen content in solution over measuring time were recorded in dark or under light, respectively. Then 15 mM HgCl2 was added to block the respiration, and the change of dissolved oxygen content in solution was recorded. The difference between the respiration rate under light and in dark, and the oxygen evolution rate when respiration was blocked by HgCl2 was calculated.

Brassica [2] = assay: Leaf absorption spectrum of transgenic Brassica; type: in vivo, Brassica napus L.; conditions: different light intensities
Method: Reflectance and transmittance of Brassica leaves under different light intensities were measured using fiber optic spectrometer with an integrating sphere (Ocean Optics, Britain). The absorbance of the leaves under different light intensities was calculated with the equation: absorbance=100%) (without leaf)−transmittance−reflectance.

Brassica [3] = assay: State transition of leaves and thylakoids of transgenic Brassica; type: in vivo, Brassica napus L.
Method: State transition of leaves was measured using PAM-101/PDA100 fluorometer (Walz) as described in (L. Dietzel et al., The Plant Cell 23, 2964 (Aug. 1, 2011). PSII light with a PFD of 100 μmol m^−2s^−1 was provided by a Schott KL-1500 lamp (Walz). PSI light with a PFD of 6 μmol m^−2s^−1 was provided by PAM-101 (Walz). The half-time (t1/2) of state 1-state 2 transition was determined by calculate the decrease of the fluorescence after PSI light was switched off. The half-time for state 2-state 1 transition was determined following L. Dietzel et al., The Plant Cell 23, 2964 (Aug. 1, 2011). Thylakoids isolated from Brassica leaves were added into STN buffer supplemented with 10 mM ATP in a final concentration of 5-10 μg/ml. Half of thylakoids were illuminated and half of the thylakoids were treated in dark for 20-30 min in room temperature, respectively. Chlorophyll α fluorescence emission spectra were recorded at 77K (in liquid nitrogen) using F-4600 spectrofluorometer (Hitachi, Japan), The excitation wavelength was set at 435 nm. Data were the average of four measurements.

Brassica [4] = assay: Redox metabolites (NAD+/NADH, NADP+/NADPH, GSSG/GSH, ASC/DHA) in transgenic Brassica leaves; type: in vivo, Brassica napus L.; conditions: transgenic Brassica transferred from red+blue light to white light
Method: Leaves were from the 4-week-old Brassica plants grown under white light or red+blue light, or 2 h after being switched from red+blue light to white light. Extraction of metabolites from leaves and measurement of NAD^+/NADH, NADP^+/NADPH, GSSG/GSH and ASC/DHA follows G. Queval, G. Noctor, Anal Biochem. 363, 58 (2007).

Brassica [5] = assay: Chlorophyll fluorescence and P700 oxidation-reduction in transgenic Brassica; type: in vivo, Brassica napus L.
Method: Electron transfer efficiency of leaves was measured by chlorophyll fluorescence. The change of chlorophyll fluorescence parameter was monitored with PAM-2000 fluorometer (Walz, Effeltrich, Germany). Electron transfer efficiency of leaves in response to light was measured after 30-min-dark adaption, Fo represents minimum PSII fluorescence after measuring light is turned on. Fm represents maximum PSII fluorescence after a saturating pulse of white light is turned on. The photochemical efficiency of PSII was calculated with the equation: ΦPSII=(Fm′−Fs)/Fm′ (Genty, B., Briantais, J. M., Baker, N. R. (1989). The relationship between the quantum yield of photosynthetic electron transport and quenching of Chl fluorescence. Biochimica et Biophysica Acta, 990, 87-92). The excitation pressure of chlorophyll was calculated with the equation: 1−qL=1−(Fm′−Fs)/(Fm′−Fo)×Fo′/Fs (Kramer, D. M., Johnson, G., Kiirats, O., Edwards, G. E. (2004) New fluorescence parameters for the determination of Q(A) redox state and excitation energy fluxes. Photosynthesis Research, 79, 209-218).
PAM chlorophyll fluorometer with ED-P700 DW-E light absorb unit was used to measure the change of the light absorb at 810-830 nm, then the change of oxidation-reduction state of P700 was obtained. […]

mCherry: red fluorescent protein, amino acid sequence SEQ ID NO: 2
seed size and grain yield per plant vs WT (wheat): increase | seed size and panicle size vs WT (wheat): significantly increased | net O2 evolution ([1]; O2 uptake inhibited by HgCl2, under light): observed significantly | O2 uptake rate under light vs WT ([1]; without HgCl2): significant lower | light energy absorbed by leaves (Brassica [2]): significantly increased | state transition of thylakoid membrane (Brassica [3]; transgenic Brassica grown under red+blue light, 77K fluorescence): no significant difference | percentage of state transition of thylakoid membrane (Brassica [3]; transgenic Brassica grown under white light, 77K fluorescence): increased | t0.5 for state transition between St1 and St2 (Brassica [3]; transgenic Brassica live leaf): significantly decreased | content of reduced metabolites or ratio of reduced to oxidized metabolites (NADH, NADPH, ascorbate, GSH) (Brassica [4]): increased | initial rate of P700^+ reduction (PSI cyclic electron transport) vs WT (Brassica [5]; transgenic Brassica leaves): much higher | photochemical efficiency of PSII (ΦPSII) (Brassica [5]; transgenic Brassica transferred from red+blue light to white light): increased
